Measurements published in patent publication US20250215371A1, “MOTOR UNIT CHIP, MANUFACTURING METHOD THEREOF AND METHOD OF DETECTING PATHOLOGICAL EVENT USING THE SAME” (Taipei Medical University, priority 2023, published 2025).

Assays:
Assay type in all cases: cell-based, mouse
myotubes = assay: Calcium imaging (fura-2) of myotubes in the motor unit chip; settings: n=8 fields
Description: (§1) Tri-cultures on 12.5 mm glass coverslips were briefly washed in HEPES Hanks' Buffer Solution (HHBS) (5.6 mM glucose, 20 mM Hepes, 3 mM NaHCO3, 0.3 mM Na2HPO4, 0.4 mM KH2PO4, 137 mM NaCl, 5.0 mM KCl, […], 4.1 mM MgSO4, 1.26 mM CaCl2, pH=7.4) and then the coverslip was incubated with fura-2 AM in 0.04% pluronic acid dissolved in HHBS to a final concentration of 20 μM for 30 mins at 37° C. After loading indicator, coverslips were washed in fresh HBSS for 10 mins at 37° C. and then transferred to an imaging chamber for microscopy experiments. Fura-2 imaging was performed on an Olympus IX71 microscope using a 20× objective lens. […] Intracellular Ca^2+ concentration ([Ca^2+]i) was monitored by sequential excitation (1 Hz) of fura-2 at 340 and 380 nm. […]
(§2) Images were processed using MetaFluor Analyst to draw regions of interest (ROIs), subtract background, and generate 340/380 ratios. […] Criterion “1” was empirically determined to exclude cells with poor signal to noise ratio. […]
(§3) Data were analyzed using the Student's t test. […] For statistical analyses of calcium image, MN and myotube data were assessed for normality using the D′Agostino-Pearson normality test. […] Percent responders was calculated using number of responders/total MNs or myotubes in the field.

MNs = assay: Calcium imaging (fura-2) of motor neurons in the motor unit chip; settings: n=8 fields
Description: as §1, §2, §3

Schwann cells = assay: Calcium imaging (fura-2) of Schwann cells in the tri-culture; settings: 50 mM extracellular K^+ or 10 μM ACh
Description: After loading indicator, coverslips were washed in fresh HBSS for 10 mins at 37° C. and then transferred to an imaging chamber for microscopy experiments. Fura-2 imaging was performed on an Olympus IX71 microscope using a 20× objective lens. Excitation wavelength was selected with a galvanometer-driven monochromator (8 nm slit width) coupled to a 75 W xenon arc lamp (Optoscan; Cairn Research). […] A single image was acquired at 610 nm to identify mApple expressing MNs in the field. Fluorescent images were captured using a cooled charge-coupled device camera (Cascade 512B; Roper Scientific) and Metafluor acquisition software (Molecular Devices). All fura-2 experiments were performed in HBSS buffer at room temperature. To depolarize MNs the extracellular K^+ concentration was increased to 50 mM with K^+ exchanged reciprocally for Na+in HHBS. For myotube stimulation 10 μM ACh was applied by bath perfusion. A 60 s baseline in HHBS was acquired before stimulation of each coverslip. High K^+ was applied for 30 s and ACh for 1 min. After stimulus application, a washout of 60 s was performed. Background images were acquired after each experiment; the coverslip was wiped clean, then 20 frames were acquired using the same parameters as above. Images were processed using MetaFluor Analyst to draw regions of interest (ROIs), subtract background, and generate 340/380 ratios. […]

Row | Compound | myotubes responded to ACh stimulation (percent responders) (myotubes; 10 μM ACh for 60 s, 24/27 cells) [%] | ACh-evoked peak 340/380 ratio ([Ca^2+]i) (myotubes; 10 μM ACh, basal 340/380 ratio 0.68±0.12, mean ±SD) | MNs responded to 50 mM K^+ stimulation (percent responders) (MNs; 50 mM K^+ for 30 s, 43/62 cells) [%] | depolarization-evoked peak 340/380 ratio ([Ca^2+]i) (MNs; 50 mM K^+, basal 340/380 ratio 0.62±0.06, mean ±SD) | changes in [Ca^2+]i in Schwann cells (Schwann cells)
1 | CC(=O)OCC[N+](C)(C)C [ACh, acetylcholine] | 89 | 3.62±2.73 |  |  | 
2 | [Cl-].[K+] [K^+] |  |  | 70 | 1.83±1.41 | did not show any changes in [Ca^2+]i
